Counter-ions that a name gives are not always drawn. Like-named read-outs stand apart in the source and are kept apart here.

Assay [1] deals with cyclic AMP in human platelet rich plasma (PRP). As to the kind of experiment: Cyclic AMP production in human blood platelets (platelet rich plasma), protein binding method of Brown et al. It is filed as cell-based. The conditions noted are these: 0.1 mM, percent increase in cyclic AMP compared to basal (vehicle alone), pH 7.4, 22 C, read-out: Cyclic AMP Production, o/o stimulative of Basal at 0.1 mM. As to the method:
Cyclic AMP prevents aggregation of blood platelets. Through increasing cyclic AMP, the compounds of this invention prevent blood platelet aggregation. That the compounds of this invention increase cyclic AMP can be seen from the following test.
In this test, human platelet rich plasma (PRP) was prepared by centrifugation of blood treated with 0.38% by weight sodium citrate at 180×g (times gravity) for ten minutes. The PRP ([…] containing approximately 2×10^7 platelets) is incubated for two minutes at 22 C, with and without the test compound, in a Tris-HCl buffer for ten minutes pH 7.4 containing 5.5 mM HCl, 1 mM Mg SO4, 5 mM Na2 H PO4, 120 mM NaCl, and 5.5 mM glucose in a fluid volume of […]. The reaction was terminated by placing the samples in boiling water for 3 minutes. The boiled extract was assayed for cyclic AMP by the protein binding method of Brown et al. (Biochemical Journal 121:561-562, 1971). The activity of this test compound at 0.1 mM is measured as the percent increase in cyclic AMP production compared to base 1 (vehicle alone) production.

Assay [2] has as its system human platelet rich plasma (PRP). The experiment in a line: Inhibition of blood platelet aggregation in human platelet rich plasma (PRP), test of Professor Born, optical density. The conditions noted are these: 0.45 ml human PRP, two separate tests, two donors. It is filed as cell-based. As to the method: That the 7-fluoro prostacyclins are potent blood platelet anti-aggregating agents can be seen when the following compounds:
were tested against PGI2 for their blood platelet anti-aggregation properties by the standard test described by Professor Born in Nature, 194 927, (1962).
In this test, the ability of the above compounds to inhibit aggregation of blood platelets in 0.45 ml of human platelet rich plasma (PRP) was measured. Aggregation was induced by the addition of any one of arachidonic acid (AA), platelet activating factor (PAF) or collagen. PAF and its synthesis is disclosed by Hirth and Barner in Helv. Chim. Acta. Vol. 65; Fasc. 3, page 1059 (1982) [Compound 1-a on page 1061]. By titration of AA, collagen and PAF at various concentrations in 0.45 ml samples of PRP, the minimum amount of AA, collagen and PAF which produces maximum blood platelet aggregation in a given sample of human platelet rich plasma (PRP) was determined. This minimum amount was used when the compounds set forth above were tested for their ability to inhibit blood platelet aggregation in samples of PRP as described below.
In carrying out the tests, various concentrations of the test compound were added to separate samples of human platelet rich plasma (PRP). To each of these samples of PRP containing a specific concentration of one of the above test compounds, there was added the minimum amount of AA, PAF, or collagen calculated above. The controls are samples of PRP containing no test compound but only the minimum amount of AA, PAF, or collagen determined above. The percent aggregation of the various samples was determined by measuring the optical density of the samples and comparing them with the optical density of the controls. This determination was made two minutes after the maximum first phase response of PAF, AA or collagen. This determination was made with freshly prepared samples of test compounds. A second determination was made in the same manner with samples of PRP two hours after the addition of AA, PAF or collagen. The IC50, the dose at which the optical density of the samples decrease to a value which is fifty (50%) percent of the value of the control was determined by the method disclosed by Professor Born's article. The IC50 values for the minimum dose were made from concentration response curve. These IC50 's were determined in two separate tests using PRP from two separate donors. The results of the minimum dose of each of the test compounds which reduces fifty (50%) percent of the aggregation of the platelets produced by any one of AA, PAF, or collagen is set forth in the following Table: […]

The mark [3] stands for this setting: Platelet, aggregation induced by minimum amount of arachidonic acid (AA), read-out: Aggregation IC50, AA.
[4] abbreviates: aggregation induced by minimum amount of platelet activating factor (PAF), read-out: Aggregation IC50, PAF.
Where [5] appears, read: Platelet, aggregation induced by minimum amount of collagen, read-out: Aggregation IC50, Collagen.

Turning to `CCCCC[C@H](O)CC[C@@H]1[C@@H]2[C@H](C[C@H]1O)O/C(=C\CCCC(=O)O)[C@H]2F` [Compound A, (5Z,7beta,9alpha,11alpha,15S)-6,9-epoxy-7-fluoro-11,15-dihydroxy-prost-5-en-1-oic acid monosodium salt], the activation at 100 µM in assay [1] came to 998%. In addition, the concentration for half-maximal inhibition (IC50) in assay [2] (setting [3]) stood at 23 nM; in assay [2] (setting [4]), 15 nM.
As to `CCCC[C@H](F)[C@H](O)CC[C@@H]1[C@@H]2[C@H](C[C@H]1O)O/C(=C\CCCC(=O)O)[C@H]2F` [Compound B, (5Z,7beta,9alpha,11alpha,15R,16S)-6,9-epoxy-7,16-difluoro-11,15-dihydroxy-prost-5-en-1-oic acid monosodium salt], the IC50 in assay [2] (setting [3]) is 20 nM; in assay [2] (setting [5]), 6 nM; in assay [2] (setting [4]), 6 nM.
As for `CCCCC[C@H](O)/C=C/[C@@H]1[C@H]2C/C(=C/CCCC(=O)O)O[C@H]2C[C@H]1O` [PGI2, reference compound], the figures for the IC50 in assay [2] (setting [3]), in assay [2] (setting [5]) and in assay [2] (setting [4]) were 0.45 nM, 2 nM and 0.15 nM, respectively.

As a reminder, the IC50 is the concentration at which inhibition is half-maximal.

The values above are taken from US4634782A, “7-fluoro-dihydro PGI compounds” (Hoffmann-La Roche Inc., priority 1985, dated 1987).
